In patent US20130289071A1, “TETRAZOLYL-TETRAHYDROPYRIDINE COMPOUNDS FOR INFLAMMATION AND IMMUNE-RELATED USES” (Synta Pharmaceuticals Corp., priority 2010, published 2013) one finds IC50 and inhibition data, which are given here for 26 compounds.

Structures are written as SMILES.

In one experiment the test system is IL-2 production. Briefly: Inhibition of IL-2 production (Jurkat/PHA/1% FBS, ELISA). The class given is cell-based. Particulars: Homo sapiens, Jurkat, 20 h, Jurkat cells, PHA 2.5 μg/mL. The protocol: JurkaT-cells were placed in a 96 well plate (0.5 million cells per well in 1% FBS medium), and then a test compound of this invention was added at different concentrations. After 10 minutes, the cells were activated with PHA (final concentration 2.5 μg/mL) and incubated for 20 hours at 37° C. under 5% CO2. The final volume was 200 μL. Following incubation, the cells were centrifuged, and the supernatants collected and stored at −70° C. prior to assaying for IL-2 production. A commercial ELISA kit (IL-2 Eli-pair, Diaclone Research, Besancon, France) was used to detect production of IL-2, from which dose response curves were obtained. The IC50 value was calculated as the concentration at which 50% of maximum IL-2 production after stimulation was inhibited versus a non-stimulation control.
A general note: ELISA stands for enzyme-linked immunosorbent assay.

Experiment [1] has as its target T1, CRAC ion channels (ICRAC current), RBL-2H3 cells (Rattus norvegicus, UniProt Q5M848).
T1 construct: endogenous in cells; host or cells: RBL-2H3 (rat basophilic leukemia) cells
Briefly: Automated patch clamp (Qpatch) inhibition of ICRAC current in RBL-2H3 cells. Particulars: 100 nM compound, % ICRAC inhibition. The class given is cell-based. As to the method: Automated patch clamp experiments are conducted with the QPatch 16 (Sophion Bioscience, Ballerup, Denmark) at room temperature (21-25° C.). Immediately following the establishment of giga-seal whole-cell configuration, the cells membrane potential is clamped at 0 mV. Voltage ramps of 50 ms duration spanning the voltage range of −100 to +100 mV are then stimulated at a rate of 0.33 Hz. Currents are filtered at 2.9 kHz and digitized at 200 μs intervals. Capacitive currents and series resistance are determined and corrected before each voltage ramp using the automatic capacitance compensation.
RBL-2H3 are grown in DMEM media supplemented with 10% fetal bovine serum, penicillin 100 U/ml and streptomycin […] in an atmosphere of 95% air/5% CO2. Cells are grown to confluence in 175 cm^2 tissue culture flask. On the experimental day, cells harvested with 0.25% trypsin/0.02% EDTA and resuspended in extracellular solution at density of 5×10^6 cells/ml.
The intracellular solution contains Cs-Glutamate 90 mM; NaCl 8 mM; MgCl2 3 mM; CsCl 20 mM; CsBAPTA 20 mM; HEPES 10 mM; InsP3 0.02 mM; pH=7.2 adjusted with CsOH.
The extracellular solution contains NMDGCl 120 mM; KCl 5.4 mM; CsCl 10 mM; CaCl2 10 mM; MgCl2 1 mM; HEPES 10 mM; Glucose 5.5 mM; at pH=7.4 adjusted with HCl.
ICRAC currents are measured using 50 msec voltage ramps between −100 mV to +100 mV. The voltage ramps are stimulated every 3 seconds for at least 570 seconds. The maximum ICRAC current is allowed to develop for at least 135 seconds. Compounds diluted in extracellular solutions are then applied twice, 30 seconds apart. After incubating the cells with compound for 435 seconds, a reference solution is applied at the end of the experiment. The reference solution is a Ca^2+ free extracellular solution.
Off-line analysis with the Qpatch software is used to plot the current value at −80 mV for each ramp trace against time. The resulting current versus time data is then exported into a Microsoft Excel spreadsheet. The ICRAC membrane currents are separated from the cells basal background currents by either subtracting out the average membrane current values during the first 1-3 traces, or the average membrane current values obtained with the reference solution at the end of the experiment. The % ICRAC inhibition in each cell is calculated by comparing the amount of current just prior to the first compound addition to the amount of current after the cells has been perfused with the compound for at least 400 seconds.
In general terms: The patch-clamp technique gives a direct electrical read-out from membranes.

T1 sequence (Q5M848 whole entry): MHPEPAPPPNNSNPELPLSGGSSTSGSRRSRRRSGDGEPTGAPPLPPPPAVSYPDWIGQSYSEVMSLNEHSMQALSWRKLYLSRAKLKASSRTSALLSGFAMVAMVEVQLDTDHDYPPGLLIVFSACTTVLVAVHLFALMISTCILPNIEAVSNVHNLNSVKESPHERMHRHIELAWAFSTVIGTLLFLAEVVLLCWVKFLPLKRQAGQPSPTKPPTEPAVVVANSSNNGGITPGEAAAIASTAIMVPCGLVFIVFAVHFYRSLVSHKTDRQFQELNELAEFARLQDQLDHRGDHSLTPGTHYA

For `Cn1nnc(N2CCC(C3CC3)=C(c3ccc(NC(=O)c4c(F)cccc4F)cc3)C2)n1` [Compound 9], the IC50 (in general, the concentration that inhibits the measured activity by half) with IL-2 production amounted to 15 nM. Besides, the inhibition (commonly how much of the control response was suppressed) at 0.1 µM in experiment [1] was 67%. For the compound `CCc1c(F)cncc1C(=O)Nc1ccc(C2=C(C)CCN(c3nnn(C)n3)C2)cc1` [Compound 10], the IC50 in the experiment on IL-2 production worked out at 16 nM. The compound also came in with an inhibition at 0.1 µM in experiment [1] of 87%. With `CC1=C(c2ccc(NC(=O)c3c(F)cccc3F)cc2)CN(c2nnn(C)n2)CC1` [Compound 11], half-maximal inhibition in the experiment with IL-2 production (IC50) required 17 nM. In experiment [1], 0.1 µM produced 53% inhibition. As for `CC1=C(c2ccc(NC(=O)c3cccc(F)c3F)cc2)CN(c2nnn(C)n2)CC1` [Compound 14], the IC50 in the experiment with IL-2 production was 18 nM. Besides, in experiment [1], the inhibition at 0.1 µM worked out at 74%. Take `CC1=C(c2ccc(NC(=O)c3ccncc3Cl)cc2)CN(c2nnn(C)n2)CC1` [Compound 15]: in experiment [1], the inhibition at 0.1 µM was 53%. In turn, `CC1=C(c2ccc(NC(=O)c3cccc(F)c3Cl)cc2)CN(c2nnn(C)n2)CC1` [Compound 16] gave an inhibition at 0.1 µM in experiment [1] of 69%.

Compound `Cn1nnc(N2CCC(Cl)=C(c3ccc(NC(=O)c4c(F)cccc4F)cc3)C2)n1` [Compound 18] had an inhibition at 0.1 µM in experiment [1] of 74%. In turn, `CC1=C(c2ccc(NC(=O)c3cccc(F)c3C)nc2)CN(c2nnn(C)n2)CC1` [Compound 20] yielded an inhibition at 0.1 µM in experiment [1] of 65%. On to `CCC1=C(c2ccc(NC(=O)c3cnccc3C)cc2)CN(c2nnn(C)n2)CC1` [Compound 22], for which, in the experiment with IL-2 production, the IC50 amounted to 29 nM. For the same compound, in experiment [1], the inhibition at 0.1 µM is 43%. `CCn1nnc(N2CCC(C)=C(c3cnc(NC(=O)c4c(F)cccc4Cl)cn3)C2)n1` [Compound 23] gave an inhibition at 0.1 µM in experiment [1] of 81%. As to `CC1=C(c2ccc(NC(=O)c3ccncc3F)cc2)CN(c2nnn(C)n2)CC1` [Compound 26], the IC50 in the experiment on IL-2 production stood at 37 nM. The compound further came in with an inhibition at 0.1 µM in experiment [1] of 69%. `CCn1nnc(N2CCC(C)=C(c3ccc(NC(=O)c4cncc(F)c4C)cc3)C2)n1` [Compound 27] came in with an IC50 in the experiment with IL-2 production of 37 nM. Further, the inhibition at 0.1 µM in experiment [1] came out at 68%. Compound `CC1=C(c2ccc(NC(=O)c3cc(F)ccc3C)nc2)CN(c2nnn(C)n2)CC1` [Compound 29] gave an inhibition at 0.1 µM in experiment [1] of 85%. Take `CC1=C(c2ccc(NC(=O)c3c(C)cccc3Cl)cc2)CN(c2nnn(C)n2)CC1` [Compound 31]: 0.1 µM produced 72% inhibition in experiment [1].

Regarding `Cn1nnc(N2CCC(Cl)=C(c3cnc(NC(=O)c4cc(F)ccc4Cl)cn3)C2)n1` [Compound 36], 0.1 µM produced 88% inhibition in experiment [1].

In the case of `CC1=C(c2cnc(NC(=O)c3cccc(F)c3F)cn2)CN(c2nnn(C)n2)CC1` [Compound 37], the IC50 in the experiment on IL-2 production is 50 nM. In experiment [1], this compound displayed an inhibition at 0.1 µM of 61%.

As for `CC1=C(c2ccc(NC(=O)c3cccc(F)c3C)cc2)CN(c2nnn(C)n2)CC1` [Compound 38], the half-maximal inhibitory concentration (IC50) with IL-2 production came out at 51 nM. Also, the inhibition at 0.1 µM in experiment [1] came to 48%. For the compound `Cn1nnc(N2CCC(C3CC3)=C(c3cnc(NC(=O)c4cccc(F)c4F)cn3)C2)n1` [Compound 39], the IC50 in the experiment with IL-2 production was determined as 51 nM. The compound also showed an inhibition at 0.1 µM in experiment [1] of 69%. As for `Cn1nnc(N2CCC(C3CC3)=C(c3cnc(NC(=O)c4c(F)cccc4F)cn3)C2)n1` [Compound 40], the IC50 in the experiment with IL-2 production was determined as 53 nM. Further, 0.1 µM produced 54% inhibition in experiment [1]. For `CC1=C(c2ccc(C(=O)Nc3c(F)cccc3F)cc2)CN(c2nnn(C)n2)CC1` [Compound 41] the same measures were 54 nM and 60%. In the case of `Cc1ccncc1C(=O)Nc1ccc(C2=C(Cl)CCN(c3nnn(C)n3)C2)cc1` [Compound 45], the IC50 with IL-2 production was found to be 59 nM. Besides, the inhibition at 0.1 µM in experiment [1] is 60%. In the experiment with IL-2 production, `CC1=C(c2ccc(NC(=O)c3ccncc3C)cc2)CN(c2nnn(C)n2)CC1` [Compound 46] displayed an IC50 of 60 nM. The inhibition at 0.1 µM in experiment [1] is 54%. On to `CC1=C(c2ccc(NC(=O)c3cnccc3C)cc2)CN(c2nnn(C)n2)CC1` [Compound 47], for which the IC50 with IL-2 production was 62 nM. Also, in experiment [1], the inhibition at 0.1 µM came to 70%. In the same order, the values of `CC1=C(c2cnc(NC(=O)c3ccccc3F)cn2)CN(c2nnn(C)n2)CC1` [Compound 54] are 92 nM and 77%.

As for `CC1=C(c2cnc(NC(=O)c3cc(F)ccc3Cl)cn2)CN(c2nnn(C)n2)CC1` [Compound 56], the IC50 in the experiment on IL-2 production amounted to 99 nM. For the same compound, in experiment [1], the inhibition at 0.1 µM amounted to 84%.

With `CC1=C(c2cnc(NC(=O)c3cccc(F)c3C)cn2)CN(c2nnn(C)n2)CC1` [Compound 61], half-maximal inhibition in the experiment on IL-2 production (IC50) was put at 116 nM. This compound came in with an inhibition at 0.1 µM in experiment [1] of 64%.
